Key:
Rattus norvegicus [1] = assay: Carcinogenic activity in Sprague-Dawley rat assessed as tumor induction time at 0.1 umol, sc three times a week for 30 days; assay type: ADME, organism-based; details: in vivo, 720 h
Rattus norvegicus [2] = assay: Carcinogenic activity in Sprague-Dawley rat assessed as tumor formation at 0.1 umol, sc three times a week for 30 days observed up to 270 days; assay type: ADME, organism-based; details: in vivo

## Cc1c2ccccc2c(C)c2c1cc(F)c1ccccc12
Rattus norvegicus [1]
  Time: 231 days

## Cc1c2ccccc2c(CO)c2cc(F)c3ccccc3c12
Rattus norvegicus [2]
  Activity: Non-toxic

## CC(=O)OCc1c2ccccc2c(C)c2c1cc(F)c1ccccc12
Rattus norvegicus [1]
  Time: 205.7 days

Reference: ChEMBL document CHEMBL3243992, “Synthesis and carcinogenic activity of 5-fluoro-7-(oxygenated methyl)-12-methylvenz[a]anthracenes” (J Med Chem, 1978)
